# From patent US20080268535A1, “Method for Inducing the Differentiation of Human Myelogenous Leukemia Cells Into Megakarocytes or Thrombocytes” (EWHA University - Industry Collaboration Foundation, priority 2005, published 2008)
# “Also recorded” adds a separate entry of the source.
# How the values were obtained:
# [1] = tested on: K562 cells; experiment: Differentiation of K562 cells layered on OP9 cells, CD41/CD61 by FACS; type: cell-based, human
# Protocol: OP9 cells were aliquoted at a density of 1×10^5 cells per well in 6-well plates and incubated for 24 hrs. After OP9 cells were uniformly attached onto the bottom of the plates, K562 cells were layered at a density of 1×10^5 cells per well over the OP cells in the 6-well plates. Treatment with 40 μg/ml of (R)-NALPCE was conducted before incubation in a day-dependent manner for 4 days. Following centrifugation (1,000 rpm, 5 min), the cell pellets thus obtained were rinsed three times with 0.01% bovine serum albumin (BSA) in PBS. Incubation with 10 μl of anti-CD41-fluorescein-5-isothiocyanate (FITC) (Dako Chemicals, Carpenteria, Calif.) and 20 μl of anti-CD61-phycoerythrin (PE) (BD Pharmingen) in 200 μl of 0.01% bovine serum albumin (BSA)-PBS was conducted at 4° C. for 50 min so as to achieve homogeneous fluorescent staining. After centrifugation (1,000 rpm, 10 min), the fluorescent-stained cell pellets thus obtained were washed three times with 0.01% bovine serum albumin (BSA) in PBS. Fluorescence was analyzed on a fluorescence-activated cell sorter (FACS) (Aria) using a Cellquest program.
# [2] = tested on: HEL cells; experiment: Growth curve of HEL cells (trypan blue viable cell count); type: cell-based, human; details: 5 μg/ml, counted every day for 5 days
# Protocol: To examine the effect of the compound (R)-NALPCE on cell growth, the HEL cells was monitored for growth curve in the presence thereof. The cells were aliquoted at a density of 3×10^5 cells per well in 6-well plates and treated with 5 μg/ml of (R)-NALPCE. After staining with trypan blue, viable cells were counted every day for 5 days.
smiles,measurement,setting,value
"CCCCCCCCCCCCCCCCCC(=O)NC(COP(=O)([O-])OCC[N+](C)(C)C)C(=O)OC [(R)-NALPCE, N-steroyl-O-phosphocholine-D-serine methyl ester]","increase in the count of CD41-positive cells, with OP9 cells versus alone","[1]; K562 cells on OP9 cells, 40 μg/ml, 4 days",15%
same,differentiation inductivity compared with PMA,[1]; in combination with OP9 cells,comparable with the differentiation inductivity of PMA; also recorded: as good as that of PMA
same,cell growth curve (viable cells),[2],relatively low cell growth curve
